In patent publication US20220312815A1, “NATURAL FOOD ANTIOXIDANT AND METHOD FOR PREPARING THE SAME” (Lanzhou Universty, priority 2019, published 2022):
Marks after values point to notes of the source that are not given here.

Assays:
[1] = Antioxidative activity of superoxide anions (PMS-NADH-NBT system method); format: biochemical; conditions: absorbance at 560 nm after 5 min, pH7.4 phosphate buffer
Source text: The determination of antioxidative activity of superoxide anions: O2-• was a free radicals with a longer life in a body. In free radical chain reaction. O2-• acted as an initiator to promote the generation of other free radicals, causing further harm to the body, which was closely related to many diseases. Therefore, the ability of the sample to remove O2-• was usually used as an important indicator of the activity of an antioxidative substance. Flavonoid and a sample of flavonoid and polysaccharide mixed that was prepared in Embodiment 1 were all prepared with 70% ethyl alcohol. A polysaccharide sample, positive control vitamin C (Vc) and vitamin E (Ve) were prepared with distilled water. 1.280 mg/mL stock solution was prepared with each substance to be tested and then diluted for 7 concentration gradients for later use. A PMS-NADH-NBT system method was used to determine the activity of scavenging superoxide anions (O2-•). […] When being added to the PMS-NADH-NBT system, an antioxidative substance inhibited the reaction of O2-• with NBT. By measuring absorbency, the ability to scavenge free radicals of antioxidant could be calculated. […] A light absorption value of the solution was measured at 560 nm after 5 min. […]

[2] = Antioxidative activity of DPPH (DPPH free radical scavenging); format: biochemical; conditions: absorbance at 519 nm after 30 minutes in dark at room temperature; mean of 3 repeats
Procedure: Antioxidative activity of DPPH: DPPH belonged to a synthetic stable free radical, which has characteristic absorption in a visible light region. A method for measuring DPPH was simple and fast and had good reproducibility. Flavonoid and a sample of flavonoid and polysaccharide mixed that was prepared in Embodiment 1 were all prepared with 70% ethyl alcohol. The polysaccharide sample, positive control vitamin C (Vc) and vitamin E (Ve) were prepared with distilled water. 1.280 mg/mL stock solution was prepared with each substance to be tested and diluted for 7 concentration gradients for later use. 75 μL of a solution in each concentration to be tested was precisely added to a 96-ferment plate, and then added with 150 μL of 0.1 m MDPPH 70% ethyl alcohol solution. A blank control was set for each reaction hole of each concentration. The blank control was 75 μL of the solution to be tested and 150 μL of 70% ethyl alcohol. The total volume of reaction was 225 μL. The solution was shook well, and kept standing in dark at room temperature for 30 minutes. […] A decrease in absorbency indicated an increase in free radical scavenging activity. Each sample was repeated 3 times for each concentration. Scavenging rate=[A0-(A1-A2)]/A0 A0 was a light absorption value of the DPPH solution plus a solution to be tested at a concentration of zero. […]

Row | Compound | IC50 of O2-· [1] | IC50 of DPPH [2]
1 | O=C1O[C@H]([C@@H](O)CO)C(O)=C1O [Vc, vitamin C] | 208.83 ± 10.41^d μg/mL | 2.95 ± 0.39^a μg/mL
2 | Cc1c(C)c2c(c(C)c1O)CC[C@@](C)(CCC[C@H](C)CCC[C@H](C)CCCC(C)C)O2 [Ve, vitamin E] | 353.33 ± 4.16^e μg/mL | 5.33 ± 0.45^a μg/mL
